Measured values published in patent US7625951B2, “Stimuli-responsive hydrogel microdomes integrated with genetically engineered proteins for high-throughput screening of pharmaceuticals” (University of Kentucky Research Foundation, priority 2000, dated 2009).

Key:
calmodulin (CaM) = assay: Swelling response of CaM-integrated hydrogel / hydrogel microdomes to free ligand
Text: The hydrogel can swell when chlorpromazine (CPZ) is integrated into the hydrogel polymer network because immobilized phenothiazine is displaced from CaM by free CPZ. Phenothiazine is released from its CaM binding site and replaced by CPZ creating a relaxation of polymer chains. This relaxation allows more water to permeate the porous hydrogel polymer network, thus hydrogel swelling occurs.
In the first stage, CaM is bound to a phenothiazine. In the presence of CPZ, competitive binding occurs, and the non-covalent crosslinking is released creating expansion of the hydrogel network.
While the collective array can be used to visually screen for an analyte, the individually addressable microdome array is analyzed using a laser screening system to detect the change in height of the microdomes. The initial size of the hydrogel microdome, including the height of the microdome, is determined using the stylus profilometer. […] The microdome array 22 on substrate 24 is placed on a stage micrometer 26. A light generating means 14 such as a laser diode generates a light beam 16 that is reflected off the top of microdome 22 to produce a diffracted light 18 that is captured by photodiode 20. By positioning the microdome 22 on the stage micrometer 26, the initial height of the microdome can be determined by the amount of light deflected off the top of the microdome 22 by counting the number of photons detected by the photodiode 20.
After the initial reading, the microdome is not moved. A test solution is applied to the microdome for about 1 to 3½ minutes and then is removed and if the microdome swells, the amount of photons emitted off the microdome will change due to the swelling. The swell time for the hydrogel microdome is about 3½ minutes after the solution is applied to the microdome. […] After the test, the stage micrometer can be adjusted to bring another near by microdome in the array into the sensing area.

calmodulin (CaM109) = assay: Fluorescence assay of conformation change in fluorophore (MDCC)-labeled CaM109 monomer and dimer; type: binding; settings: added to labeled calmodulin molecules that had already bound calcium
Text: In order to measure the extent of conformation change in CaM molecules in response to calcium and phenothiazine binding, a system has been developed in which a fluorophore is conjugated to a cysteine residue that had been inserted at amino acid 109 of wild type CaM using methods well known to those skilled in the art. This CaM mutant was called CaM109. The fluorescence of the fluorophore increases as the conformation of CaM changes in the presence of calcium.
Since wild-type CaM contains no cysteines, the addition of a cysteine to CaM at a desired position within the protein, allows for labeling of the protein at this position. Such labeling was done using a thiol-reactive fluorescent label called N-[2-(1-maleimidyl)ethyl]-7-(diethylamino)coumarin-3-carboxamide, or MDCC.
The fluorescence response of MDCC-labeled, CaM109 molecules was recorded in the absence and presence of 3×10^6 M Ca^++. The Ca^++ concentration was controlled by EGTA at pH 8.0, and the free Ca^++ concentrations were calculated using the software program Chelator (Haugland, 1996, Handbook of Fluorescent Probes and Research Chemicals, 6th edition, Molecular Probes, Eugene, Oreg., p. 52).

SMILES	binding affinity for CaM (relative) (calmodulin (CaM); displacement of immobilized phenothiazine from the CaM binding site in the hydrogel)	swelling of protein-hydrogel microdomes (calmodulin (CaM); microdomes on polymethyl methacrylate or silanized glass slides)	swelling of CaM hydrogel with immobilized phenyl ligand (4-phenyl-1-butene) (calmodulin (CaM); phenothiazine derivative replaced with 4-phenyl-1-butene, swelling irreversible, FIG. 17)	fluorescence quenched (calmodulin (CaM109))
CN(C)CCCN1c2ccccc2Sc2ccc(Cl)cc21 [chlorpromazine]	higher binding affinity for CaM than phenothiazine	swelling occurred	the hydrogel swells	
c1ccc2c(c1)Nc1ccccc1S2 [phenothiazine]				100%
